The text below walks through data of ChEMBL document CHEMBL5352436, “Triterpenoid pyrazines and pyridines - Synthesis, cytotoxicity, mechanism of action, preparation of prodrugs” (Eur J Med Chem, 2022).

One data set deals with A549. Kind of data set: Cytotoxicity against human A549 cells assessed as reduction in cell viability incubated for 72 hrs by MTS assay. The class given is functional, cell-based. Particulars: A549, 72 h. (In general: Formazan colour is commonly taken as a measure of viable cells.)
The test system of a further data set is CEM-DNR. Kind of data set: Cytotoxicity against human CEM-DNR cells assessed as reduction in cell viability incubated for 72 hrs by MTS assay. The class given is functional, cell-based.
In the next data set the test system is HCT-116. Kind of data set: Cytotoxicity against human HCT-116 cells assessed as reduction in cell viability incubated for 72 hrs by MTS assay. The class given is functional, cell-based. As to conditions: HCT-116, 72 h.
The nature of data set [1]: Cytotoxicity against human K562-Tax cells assessed as reduction in cell viability incubated for 72 hrs by MTS assay. It is filed as functional, cell-based.
Another data set concerns K562. Kind of data set: Cytotoxicity against human K562 cells assessed as reduction in cell viability incubated for 72 hrs by MTS assay. It is filed as functional, cell-based. As to conditions: K562, 72 h.
Data set [2] is described as follows: Cytotoxicity against human HCT116-p53-null cells assessed as reduction in cell viability incubated for 72 hrs by MTS assay. The class given is functional, cell-based.
A short description of data set [3]: Cytotoxicity against human BJ cells assessed as reduction in cell viability incubated for 72 hrs by MTS assay. It is filed as toxicity, cell-based.
Data set [4] in a line: Cytotoxicity against human MRC5 cells assessed as reduction in cell viability incubated for 72 hrs by MTS assay. It is filed as toxicity, cell-based.
A further data set has as its system U2OS. Kind of data set: Cytotoxicity against human U2OS cells assessed as reduction in cell viability incubated for 72 hrs by MTS assay. It is filed as functional, cell-based.
In another data set the test system is CCRF-CEM. Kind of data set: Cytotoxicity against human CCRF-CEM cells assessed as reduction in cell viability incubated for 72 hrs by MTS assay. The class given is functional, cell-based.

As a reminder, the IC50 is the concentration that inhibits the measured activity by half. `C=C(C)[C@@H]1CC[C@]2(C(=O)OCc3oc(=O)oc3C)CC[C@]3(C)[C@H](CC[C@@H]4[C@@]5(C)Cc6nccnc6C(C)(C)[C@@H]5CC[C@]43C)[C@@H]12`: the 50% inhibitory concentration (IC50) with A549 is 10 µM; in the data set on CEM-DNR it was 0.49 µM; with HCT-116 it was 40 µM; in [1] it was 13 µM; in the data set on K562 it was greater than 50 µM; in data set [2] it was 49 µM. Further, the IC50 in the data set on U2OS came to 45 µM; with CCRF-CEM, 3.6 µM. In addition, the IC50 at 72 h in data set [3] and in data set [4] was greater than 50 µM throughout.
As for `CC1(C)CC[C@]2(C(=O)O)CC[C@]3(C)C(=CC[C@@H]4[C@@]5(C)CCC(=O)C(C)(C)[C@@H]5CC[C@]43C)[C@@H]2C1` [OLEANONIC ACID], the IC50 with CEM-DNR was 17 µM; in [1], 21 µM; in the data set on K562, greater than 50 µM; in data set [2], greater than 50 µM; in the data set with CCRF-CEM, 9.5 µM. Also, the IC50 at 72 h in data set [3] and in data set [4] was greater than 50 µM each time.
Turning to `CC1(C)CC[C@]23CC[C@]4(C)[C@H](CC[C@@H]5[C@@]6(C)Cc7cccnc7C(C)(C)[C@@H]6CC[C@]54C)[C@H]2[C@H]1OC3`, the IC50 (in the data set with A549; in the data set with CEM-DNR; with HCT-116; in data set [1]; in the data set on K562; in data set [2]) was greater than 50 µM in each case. Further, the IC50 in the data set on U2OS and with CCRF-CEM was greater than 50 µM each time. The IC50 at 72 h in [3] and in data set [4] was greater than 50 µM in each case.
Take `CC1(C)CC[C@]2(C(=O)O)CC[C@]3(C)C(=CC[C@@H]4[C@@]5(C)Cc6nccnc6C(C)(C)[C@@H]5CC[C@]43C)[C@@H]2C1`: the IC50 in the data set with A549 is 50 µM; with CEM-DNR, 14 µM; in the data set with HCT-116 it was 50 µM; in data set [1], 34 µM; with K562, greater than 50 µM; in data set [2] it was greater than 50 µM. Besides, the results for the IC50 in the data set on U2OS and in the data set on CCRF-CEM were greater than 50 µM and 18 µM, respectively. The IC50 at 72 h in data set [3] and in data set [4] was greater than 50 µM throughout.
`CC1(C)C=C2[C@H]3CC[C@@H]4[C@@]5(C)CCC(=O)C(C)(C)[C@@H]5CC[C@@]4(C)[C@]3(C)CC[C@@]2(C(=O)O)CC1` [MORONIC ACID]: the IC50 was 47 µM in the data set on A549; 17 µM in the data set with CEM-DNR; 45 µM in the data set on HCT-116; 21 µM in [1]; greater than 50 µM in the data set with K562; greater than 50 µM in data set [2]. Also, the values for the IC50 with U2OS and with CCRF-CEM were greater than 50 µM and 17 µM, respectively. Further, the IC50 at 72 h in data set [3] and in data set [4] was greater than 50 µM each time.
Take `CC1(C)CC[C@]2(C(=O)O)CC[C@]3(C)C(=CC[C@@H]4[C@@]5(C)Cc6cccnc6C(C)(C)[C@@H]5CC[C@]43C)[C@@H]2C1`: the IC50 was greater than 50 µM in the data set on A549; greater than 50 µM with CEM-DNR; greater than 50 µM in the data set on HCT-116; greater than 50 µM in data set [1]; 13 µM in the data set on K562; greater than 50 µM in data set [2]. The IC50 in the data set with U2OS was greater than 50 µM; with CCRF-CEM, 39 µM. Also, the IC50 at 72 h in data set [3] and in data set [4] was greater than 50 µM each time.
Take `C#CCOC(=O)[C@]12CC[C@@H](C(=C)C=O)[C@@H]1[C@H]1CC[C@@H]3[C@@]4(C)CC[C@H](O)C(C)(C)[C@@H]4CC[C@@]3(C)[C@]1(C)CC2`: the IC50 is 1.3 µM in the data set with A549; 1.4 µM with CEM-DNR; 1.7 µM in the data set on HCT-116; 1.3 µM in [1]; 1.8 µM in the data set on K562; 1.5 µM in data set [2]. The IC50 in the data set with U2OS came out at 1.6 µM; with CCRF-CEM it was 0.88 µM. Moreover, the IC50 at 72 h in data set [3] was 7.1 µM; in data set [4], 1.7 µM.
Take `C=C(C)[C@@H]1CC[C@]2(C(=O)O)CC[C@]3(C)[C@H](CC[C@@H]4[C@@]5(C)CCC(=O)C(C)(C)[C@@H]5CC[C@]43C)[C@@H]12` [BETUNOLIC ACID]: the results for the IC50 (in the data set on CEM-DNR; in [1]; in [2]) were 11 µM, 15 µM and 49 µM, respectively. The IC50 at 72 h in data set [3] stood at 39 µM.
Turning to `C[C@H]1[C@H](C)CC[C@]2(C(=O)O)CC[C@]3(C)C(=CC[C@@H]4[C@@]5(C)Cc6cccnc6C(C)(C)[C@@H]5CC[C@]43C)[C@H]12`, the half-maximal inhibitory concentration (IC50) in the data set with A549 is greater than 50 µM; in the data set with CEM-DNR it was 40 µM; in the data set on HCT-116 it was greater than 50 µM; in [1] it was 47 µM; in the data set on K562, 32 µM; in data set [2] it was greater than 50 µM. For the same compound, the IC50 in the data set on U2OS is greater than 50 µM; with CCRF-CEM, 38 µM. Also, the IC50 at 72 h in data set [3] and in data set [4] was greater than 50 µM in each case.
For `CC1=CC[C@]2(C(=O)O)CC[C@]3(C)C(=CC[C@@H]4[C@@]5(C)Cc6cccnc6C(C)(C)[C@@H]5CC[C@]43C)[C@H]2[C@@H]1C`, the IC50 came out at 20 µM with A549; 11 µM in the data set on CEM-DNR; 34 µM in the data set on HCT-116; 13 µM in [1]; 12 µM in the data set on K562; 34 µM in data set [2]. The IC50 in the data set on U2OS is 35 µM; in the data set with CCRF-CEM it was 6.3 µM. The IC50 at 72 h in data set [3] and in [4] was greater than 50 µM each time.
For the compound `C=C(C)[C@@H]1CC[C@]2(C(=O)OCc3oc(=O)oc3C)CC[C@]3(C)[C@H](CC[C@@H]4[C@@]5(C)Cc6cccnc6C(C)(C)[C@@H]5CC[C@]43C)[C@@H]12`, the 50% inhibitory concentration (IC50) with A549 is 50 µM; in the data set on CEM-DNR, 48 µM; in the data set with HCT-116, greater than 50 µM; in [1] it was 49 µM; with K562, 0.037 µM; in [2], greater than 50 µM. The IC50 with U2OS was greater than 50 µM; in the data set with CCRF-CEM it was 35 µM. Moreover, the IC50 at 72 h in data set [3] and in [4] was greater than 50 µM in each case.
Turning to `CC1(C)C=C2[C@H]3CC[C@@H]4[C@@]5(C)Cc6nccnc6C(C)(C)[C@@H]5CC[C@@]4(C)[C@]3(C)CC[C@@]2(C(=O)O)CC1`, the IC50 in the data set on A549 was greater than 50 µM; in the data set on CEM-DNR, 29 µM; in the data set on HCT-116 it was 40 µM; in data set [1], 25 µM; in the data set with K562 it was greater than 50 µM; in data set [2] it was greater than 50 µM. The IC50 is greater than 50 µM with U2OS and 15 µM in the data set with CCRF-CEM. The IC50 at 72 h in data set [3] and in data set [4] was greater than 50 µM in each case.
Take `CC1(C)C=C2[C@H]3CC[C@@H]4[C@@]5(C)Cc6cccnc6C(C)(C)[C@@H]5CC[C@@]4(C)[C@]3(C)CC[C@@]2(C(=O)O)CC1`: the IC50 in the data set on A549 was greater than 50 µM; in the data set on CEM-DNR, 14 µM; in the data set on HCT-116, 47 µM; in data set [1], 15 µM; in the data set with K562, greater than 50 µM; in data set [2], greater than 50 µM. Besides, the figures for the IC50 with U2OS and in the data set on CCRF-CEM were greater than 50 µM and 8 µM, respectively. The IC50 at 72 h in [3] and in [4] was greater than 50 µM throughout.
Take `Cc1oc(=O)oc1COC(=O)[C@]12CC[C@@H](C(C)C)[C@@H]1[C@H]1CC[C@@H]3[C@@]4(C)Cc5nccnc5C(C)(C)[C@@H]4CC[C@@]3(C)[C@]1(C)CC2`: the IC50 with A549 was 41 µM; with CEM-DNR it was 50 µM; in the data set with HCT-116, greater than 50 µM; in [1], 12 µM; with K562 it was 0.026 µM; in data set [2], 44 µM. The IC50 turned out to be 40 µM in the data set on U2OS and 17 µM in the data set on CCRF-CEM. In addition, the IC50 at 72 h in [3] and in [4] was greater than 50 µM in each case.
On to `C#CCOC(=O)[C@]12CC[C@@H](C(=C)C)[C@@H]1[C@H]1CC[C@@H]3[C@@]4(C)CC[C@H](O)C(C)(C)[C@@H]4CC[C@@]3(C)[C@]1(C)CC2`, for which the IC50 in the data set on A549 was 43 µM; in the data set on CEM-DNR, 40 µM; in the data set with HCT-116, 33 µM; in data set [1], 36 µM; in the data set on K562, 43 µM; in data set [2], 31 µM. Further, the figures for the IC50 with U2OS and in the data set on CCRF-CEM were 31 µM and 24 µM, respectively. Also, the IC50 at 72 h in [3] was found to be 32 µM; in data set [4] it was 26 µM.
`C[C@H]1[C@H](C)CC[C@]2(C(=O)O)CC[C@]3(C)C(=CC[C@@H]4[C@@]5(C)Cc6nccnc6C(C)(C)[C@]5(C)CC[C@]43C)[C@H]12`: the IC50 in the data set with A549 was greater than 50 µM; in the data set with CEM-DNR, 17 µM; in the data set on HCT-116, 50 µM; in data set [1], 44 µM; in the data set on K562, greater than 50 µM; in data set [2], greater than 50 µM. The IC50 was greater than 50 µM in the data set with U2OS and 19 µM with CCRF-CEM. Besides, the IC50 at 72 h in data set [3] and in [4] was greater than 50 µM in each case.
In the case of `CC(C)[C@@H]1CC[C@]2(C(=O)O)CC[C@]3(C)[C@H](CC[C@@H]4[C@@]5(C)CCC(=O)C(C)(C)[C@@H]5CC[C@]43C)[C@@H]12` [DIHYDROBETULONIC ACID], the IC50 with CEM-DNR is 48 µM; in [1], 11 µM; in [2] it was 36 µM; in the data set on U2OS it was 27 µM; in the data set with CCRF-CEM, 6.3 µM. Besides, the IC50 at 72 h in data set [3] and in [4] was greater than 50 µM each time.
